Measurements: patent US20250388623A1, “PEPTIDE INHIBITOR AND USE THEREOF” (CHENGDU BRILLIANT INSPIRATION BIOTHERAPEUTICS CO., LTD, priority 2022, published 2025)
Bridge positions count the residues as written; N and C are the ends. Peptide text beside a SMILES is read from it.

What was measured:
[1] = tested on: human lung adenocarcinoma A549 cells; assay: Transwell tumor cell migration, co-culture with PMA-differentiated THP-1 cells; assay type: cell-based; conditions: 100 μM polypeptide 48 h, co-culture 24 h; negative control group = 100.00
Description: (§1) This Example was to assess the effects of polypeptides on the migration abilities of different tumor cells. The experiment was performed using transwell nested chambers (membrane pore size of 8 μm), where THP-1 cells were inoculated in the lower chamber and treated with 300 nM PMA (Sigma, Catalog No.P1585) for differentiation and chamber-wall adherence, and then treated with 100 μM polypeptide (in the negative control, an equal volume of solvent was added) for 48 hours. The upper chamber was inoculated with tumor cells, human lung adenocarcinoma A549 cells (American Typical Culture Collection, ATCC, CCL-18), and co-cultured for 24 hours; or inoculated with human liver cancer HepG2/C3A cells (ATCC, CRL-10741), and co-cultured for 24 h; or inoculated with human breast cancer MCF7 cells (ATCC, HTB-22), and co-cultured for 48 h. After that, the upper chamber was taken out, fixed with 70% ethanol for 10 min and washed, then stained with Giemsa staining solution (Beyotime, Catalog No.C0131) for 45 min. After washing with double distilled water 2-3 times, unmigrated cells were wiped off the upper layer with a cotton swab. After the chamber was dried, it was observed under a microscope, and five different fields of view under a 100× magnification were randomly selected for counting and statistics. The polypeptides had significant inhibitory effects on the migratory abilities of human lung adenocarcinoma cells, human liver cancer cells, and human breast cancer cells.

[2] = tested on: human liver cancer HepG2/C3A cells; assay: as above; assay type: cell-based; conditions: 100 μM polypeptide 48 h, co-culture 24 h; negative control group = 100.00
Description: as §1

[3] = tested on: human breast cancer MCF7 cells; assay: as above; assay type: cell-based; conditions: 100 μM polypeptide 48 h, co-culture 48 h; negative control group = 100.00
Description: as §1

[4] = tested on: rat fibrotic disease model (bleomycin); assay: Hydroxyproline (HYP) content / collagen deposition in lung, bleomycin rat fibrosis model; assay type: in vivo; conditions: 2 mg/kg intratracheal twice weekly x4 from Day 1, Day 15, model group = 100.00
Description: This Example was to evaluate the inhibitory effect of polypeptides on collagen deposition at the pathological sites of pulmonary fibrosis. 6- to 8-week-old male SD rats weighing 200 to 220 g were used as subjects for the study. The experimental animals were randomized into groups, 8 animals in each group. On the day of modeling (Day 1), a single dose of 1.8 USP/kg of bleomycin solution was administered via the tracheal route to the model group and each peptide-treated group to induce the model. Starting on Day 1, each peptide-treated group received intratracheal administration of the peptide at a dosage of 2 mg/kg, with a dosing frequency of twice a week, for a total of four administrations. The model group received an equal volume of solvent (saline) as a control, with the volume being 100 μL. The procedure followed that described in Example 4. Day 15 was set as the experimental endpoint for assessing the degree of fibrosis in the model.
On Day 15, the animals were dissected to collect lung tissues. After grinding the rat lung tissues in liquid nitrogen, total hydroxyproline (HYP) was extracted from the tissues using acid hydrolysis, and the HYP content was determined by chloramine T oxidation colorimetry. 1 mL of 6N HCl was added per 100 mg of tissue and thoroughly mixed, followed by hydrolysis at 121° C. for 6 hours. The hydrolysate was centrifuged, and the resulting supernatant was used for HYP content determination. To a 96-well plate, the hydrolysate supernatant, or a gradient of HYP standard solutions (Sigma, Catalog No. V900395-25G) at different concentrations, was added in 10 μL per well, and dried in an oven at 65° C. 100 μL per well of 1.4% chloramine T oxidizing solution (Sigma, Catalog No. 23270-50G) was added, and incubated at room temperature for 15 minutes. 100 μL per well of Ehrlich's color development solution (Solarbio, Catalog No. G1290) was added and incubated at 65° C. for 30 minutes. The absorbance of each sample well was measured at 560 nm (OD560) using a multifunctional microplate reader (TECAN, model Infinite 200 Pro). The total HYP content in the lung tissue from each experimental group was calculated to determine the reduction percentage of HYP content in the peptide-treated group relative to the model group, and the inhibitory effect of the peptide molecule on collagen deposition at the fibrotic site was assessed.

[5] = tested on: rat fibrotic disease model (bleomycin); assay: Lung index and fibrotic pathology (Masson's trichrome) in bleomycin rat fibrosis model; assay type: in vivo; conditions: for Lung index Mean(‰): 2 mg/kg intratracheal twice weekly x4 from Day 1, Day 15, BLM model 8.63, negative control 4.62; for Fibrosis score Mean: 2 mg/kg intratracheal twice weekly x4 from Day 1, Day 15, Masson's trichrome, BLM model 3.34, negative control 0.96
Description: This Example was to assess the inhibitory effect of polypeptide administration on the expression levels of pro-fibrotic factors at pathological fibrotic sites. 6- to 8-week-old male SD rats weighing 200 to 220 g were used as subjects for the study. The experimental animals were randomized into groups, 6 animals in each group. On the day of modeling (Day 1), a single dose of 1.8 USP/kg of bleomycin solution was administered via the tracheal route to the BLM model group and each peptide-treated group to induce the model. The negative control group was given an equal volume of saline. Starting on Day 1, each peptide-treated group received intratracheal administration of the peptide at a dosage of 2 mg/kg, with a dosing frequency of twice a week, for a total of four administrations. The BLM model group and the negative control group received an equal volume of solvent (saline) as a control, with the volume being 100 μL. The procedure followed that described in Example 4.
On Day 15, the lung tissues were dissected, washed with saline to remove blood stains, dried with gauze, and weighed. The lung index was calculated (lung index=(wet lung weight/body weight)×1000. This index reflects the general condition of the lung tissue, including edema, inflammation, and fibrosis). Histopathological analysis was performed on the dissected lung tissues. The lung tissues were perfused with 5 mL of paraformaldehyde via the trachea and placed in 40 mL of paraformaldehyde. A small amount of gauze was added to ensure the lung tissues were completely immersed in the fixative solution. The tissues were fixed for more than 24 hours. One lobe of the left lung and four lobes of the right lung were trimmed to the maximum coronal plane, and the left and right lungs were individually placed in two embedding cassettes, and then paraffin-embedded to make 3 μm sections. Masson's trichrome staining was performed as described in Example 7. After digital scanning, for each lung lobe, ≤10 visual fields were captured under a 10× magnification. The severity score of fibrosis was assessed to evaluate the inhibitory effects of the polypeptides on fibrotic deposition at pathological fibrotic sites.

C[C@@H]1NC(=O)[C@H](CC(=O)O)NC(=O)[C@H](CCC(N)=O)NC(=O)[C@H]([C@@H](C)O)NC(=O)[C@H](CC(N)=O)NC(=O)[C@H](CC(=O)O)NC(=O)[C@H](CCC(=O)O)NC1=O [SEQ ID NO: 40, cyclo[Thr-Gln-Asp-Ala-Glu-Asp-Asn]] (cyclo(AEDNTQD))
A549 migration Mean (%) [1]: 67.97% | HEPG2/C3A migration Mean (%) [2]: 67.27% | MCF7 migration Mean (%) [3]: 51.27% | HYP content in lung tissue relative to model group, Mean (%) [4]: 72.93%

CC(=O)N[C@H](C(=O)N[C@H]1CSSC[C@@H](C(=O)O)NC(=O)[C@H](CC(N)=O)NC(=O)[C@H](CC(=O)O)NC(=O)[C@H](CCC(=O)O)NC(=O)[C@H](C)NC(=O)[C@H](CC(=O)O)NC1=O)[C@@H](C)O [SEQ ID NO: 43, Ac-Thr-cyclo[Cys-Asp-Ala-Glu-Asp-Asn-Cys]] (Ac-TCDAEDNC-OH; disulfide 2-8)
A549 migration Mean (%) [1]: 83.37% | HEPG2/C3A migration Mean (%) [2]: 71.02% | MCF7 migration Mean (%) [3]: 73.84% | HYP content in lung tissue relative to model group, Mean (%) [4]: 72.91% | Lung index Mean(‰) [5]: 7.11 ‰ | Fibrosis score Mean [5]: 2.72

CC(=O)N[C@H](C(=O)N[C@H]1CSSC[C@@H](C(N)=O)NC(=O)[C@H](CC(N)=O)NC(=O)[C@H](CC(=O)O)NC(=O)[C@H](CCC(=O)O)NC(=O)[C@H](C)NC(=O)[C@H](CC(=O)O)NC1=O)[C@@H](C)O [SEQ ID NO: 44, Ac-Thr-cyclo[Cys-Asp-Ala-Glu-Asp-Asn-Cys]-NH2] (Ac-TCDAEDNC-NH2; disulfide 2-8)
A549 migration Mean (%) [1]: 73.63% | HEPG2/C3A migration Mean (%) [2]: 70.63% | MCF7 migration Mean (%) [3]: 68.24% | HYP content in lung tissue relative to model group, Mean (%) [4]: 65.55%

C[C@@H]1NC(=O)[C@H]([C@@H](C)O)NC(=O)[C@H](CC(N)=O)NC(=O)[C@H](CC(=O)O)NC(=O)[C@H](CCC(=O)O)NC(=O)[C@@H]2CCCN2C(=O)[C@H](CC(=O)O)NC(=O)[C@H](CCC(N)=O)NC(=O)[C@H]([C@@H](C)O)NC(=O)[C@H](CO)NC1=O [SEQ ID NO: 46, cyclo[Thr-Gln-Asp-Pro-Glu-Asp-Asn-Thr-Ala-Ser]] (cyclo(ASTQDPEDNT))
A549 migration Mean (%) [1]: 36.12% | HEPG2/C3A migration Mean (%) [2]: 64.77% | MCF7 migration Mean (%) [3]: 57.98% | HYP content in lung tissue relative to model group, Mean (%) [4]: 66.46%

Ac-TQDAEDN-NH2 [SEQ ID NO: 06, Ac-Thr-Gln-Asp-Ala-Glu-Asp-Asn-NH2]
A549 migration Mean (%) [1]: 80.41% | HEPG2/C3A migration Mean (%) [2]: 81.77% | MCF7 migration Mean (%) [3]: 51.95% | HYP content in lung tissue relative to model group, Mean (%) [4]: 80.30% | Lung index Mean(‰) [5]: 7.17 ‰ | Fibrosis score Mean [5]: 2.66

Ac-TQDAEDNTASH-NH2 [SEQ ID NO: 33, Ac-Thr-Gln-Asp-Ala-Glu-Asp-Asn-Thr-Ala-Ser-His-NH2]
A549 migration Mean (%) [1]: 62.89% | HEPG2/C3A migration Mean (%) [2]: 72.07% | MCF7 migration Mean (%) [3]: 47.13% | HYP content in lung tissue relative to model group, Mean (%) [4]: 80.28% | Lung index Mean(‰) [5]: 7.37 ‰ | Fibrosis score Mean [5]: 2.63

Ac-TQDAEDPTA-NH2 [SEQ ID NO: 22, Ac-Thr-Gln-Asp-Ala-Glu-Asp-Pro-Thr-Ala-NH2]
A549 migration Mean (%) [1]: 59.45% | HEPG2/C3A migration Mean (%) [2]: 76.69% | MCF7 migration Mean (%) [3]: 48.64% | HYP content in lung tissue relative to model group, Mean (%) [4]: 68.30% | Lung index Mean(‰) [5]: 7.39 ‰ | Fibrosis score Mean [5]: 2.70

Ac-TQDAEDPTAS-NH2 [SEQ ID NO: 25, Ac-Thr-Gln-Asp-Ala-Glu-Asp-Pro-Thr-Ala-Ser-NH2]
A549 migration Mean (%) [1]: 62.95% | HEPG2/C3A migration Mean (%) [2]: 63.99% | MCF7 migration Mean (%) [3]: 61.75% | HYP content in lung tissue relative to model group, Mean (%) [4]: 81.45% | Lung index Mean(‰) [5]: 7.42 ‰ | Fibrosis score Mean [5]: 2.62

Ac-TQDPEDNTAS-NH2 [SEQ ID NO: 26, Ac-Thr-Gln-Asp-Pro-Glu-Asp-Asn-Thr-Ala-Ser-NH2]
A549 migration Mean (%) [1]: 73.25% | HEPG2/C3A migration Mean (%) [2]: 55.16% | MCF7 migration Mean (%) [3]: 63.23% | HYP content in lung tissue relative to model group, Mean (%) [4]: 78.75% | Lung index Mean(‰) [5]: 7.17 ‰ | Fibrosis score Mean [5]: 2.43
